Results reported in patent US20100286092A1, “BETA-LACTAMASE INHIBITORS” (priority 2007, published 2010).

Assays:
Conditions in all cases: in the presence of a fixed amount (8 μg/mL) of Ceftazidime; CAMHB, 16-20 hours at 37° C.
[1] = system: E. cloacae expressing the Class C P99+; format: cell-based
Description: (§1) To determine the ability of test compounds to potentiate the inhibition of the growth of bacterial strains producing beta-lactamase enzymes, classic cell based screening assays were employed. Four bacteria strains producing beta-lactamase enzymes were used: K. pneumoniae expressing the Class A Extended Spectrum Beta-Lactamase (ESBL) CTX-M-15, E. coli expressing the Class A ESBL SHV-5, E. cloacae expressing the Class C P99+, and K. pneumoniae expressing the Class A carbapenemase KPC-2. In order to evaluate the ability of test compounds to inhibit beta-lactamase activity, Applicants used a modification of the broth microdilution assay. The assay was conducted in Cation Adjusted Mueller Hinton Broth (CAMHB, BD #212322, BD Diagnostic Systems, Sparks, Md.). Bacteria strains were grown for 3-5 hours in CAMBH broth. All four strains were grown in presence of 50 μg/mL ampicillin to ensure resistance is maintained. In the meantime, test compounds were diluted in DMSO to a 0.1 mg/mL stock. The compounds were added to a microtiter plate and were diluted in 2-fold serial dilutions in CAMHB in a final concentration range of 8 μg/mL to 0.015 μg/ml. An overlay of CAMHB containing a cephalosporin was added to the compounds at a final static concentration of 8 μg/ml. […] Each of these compound plates are made in quadruplicate, one for each bacteria strain. In addition to the titration of test compounds the MICs of a panel of cephalosporins is also tested to ensure the strains are behaving consistently from test to test. Once the test compound and cephalosporin are added the plates can be inoculated. Inocula are conducted according to CLSI broth microdilution method. After inoculation the plates are incubated for 16-20 hours at 37° C. then the Minimal Inhibitory Concentration (MIC) of the test compound is determined visually.
(§2) Using the methodology described above, examples of the current invention were evaluated for their ability to inhibit the growth of β-lactamase producing bacteria in the presence of a β-lactam antibiotic. […] NT=Not Tested.

[2] = system: K. pneumoniae expressing the Class A Extended Spectrum Beta-Lactamase (ESBL) CTX-M-15; format: cell-based
Description: as §1, §2

[3] = system: K. pneumoniae expressing the Class A carbapenemase KPC-2
Description: as §1, §2

Compound | MIC of example compound, E. cloacae P99 AmpC + 8 μg/mL CAZ [1] | MIC of example compound, K. pneumoniae CTX-M-15 + 8 μg/mL CAZ [2] | MIC of example compound, K. pneumoniae KPC-2 + 8 μg/mL CAZ [3]
O=C(Cc1cccs1)N[C@@H](Cc1ccc(C(=O)O)cc1O)B(O)O [Example 2, (1R)-1-(2-thiophene-2-yl-acetylamino)-2-(2-hydroxy-4-carboxyphenyl)ethyl-1-boronic acid] | A (A represents an MIC>8 μg/mL) |  | 
O=C(Cc1cccc(O)c1)N[C@@H](Cc1cccc(C(=O)O)c1O)B(O)O [Example 3, (1R)-1-(3-hydroxy-phenyl)acetylamino-1-(3-carboxy-2-hydroxy)benzyl-methyl boronic acid] |  | C (C represents an MIC of <1 μg/mL) | C (C represents an MIC of <1 μg/mL)
O=C(CCC(=O)c1cccs1)N[C@@H](Cc1cccc(C(=O)O)c1O)B(O)O [Example 5, (1R)-1-(4-oxo-4-thiophen-2-yl-butyrylamino)-2-(2-hydroxy-3-carboxyphenyl)ethyl-1-boronic acid] | C (C represents an MIC of <1 μg/mL) | C (C represents an MIC of <1 μg/mL) | C (C represents an MIC of <1 μg/mL)
CC(=O)N[C@@H](Cc1cccc(C(=O)O)c1O)B(O)O [Example 6, (1R)-1-(2-acetylamino)-2-(2-hydroxy-3-carboxyphenyl)ethyl-1-boronic acid] |  | C (C represents an MIC of <1 μg/mL) | C (C represents an MIC of <1 μg/mL)
NC(=O)COc1cccc(CC(=O)N[C@@H](Cc2cccc(C(=O)O)c2O)B(O)O)c1 [Example 8, (1R)-1-[(3-carbamoylmethoxy)-phenyl]-acetylamino-(3-carboxy-2-hydroxy)benzyl-methylboronic acid] |  | C (C represents an MIC of <1 μg/mL) | C (C represents an MIC of <1 μg/mL)
O=C(N[C@@H](Cc1cccc(C(=O)O)c1O)B(O)O)c1cccs1 [Example 11, (1R)-1-(thiophene-2-carbonyl-amino)-2-(2-hydroxy-3-carboxyphenyl)ethyl-1-boronic acid] | C (C represents an MIC of <1 μg/mL) | C (C represents an MIC of <1 μg/mL) | C (C represents an MIC of <1 μg/mL)
N[C@H](C(=O)N[C@@H](Cc1cccc(C(=O)O)c1O)B(O)O)c1ccccc1.O=CO [Example 12, (1R,2′S)-1-(2-amino-2-phenylacetylamino)-2-(2-hydroxy-3-carboxyphenyl)ethyl-1-boronic acid formate salt] |  | C (C represents an MIC of <1 μg/mL) | C (C represents an MIC of <1 μg/mL)
O=C(N[C@@H](Cc1cccc(C(=O)O)c1O)B(O)O)c1ccccc1 [Example 13, (1R)-1-Benzoylamino-1-(3-carboxy-2-hydroxy)benzyl-methylboronic acid] | C (C represents an MIC of <1 μg/mL) | C (C represents an MIC of <1 μg/mL) | C (C represents an MIC of <1 μg/mL)
CC(C)C(=O)N[C@@H](Cc1cccc(C(=O)O)c1O)B(O)O [Example 14, (1R)-1-Isobutyrylamino-1-(3-carboxy-2-hydroxy)benzyl-methylboronic acid] | C (C represents an MIC of <1 μg/mL) | C (C represents an MIC of <1 μg/mL) | C (C represents an MIC of <1 μg/mL)
O=C(O)c1cccc(C[C@H](NC(=O)C2CCCC2)B(O)O)c1O [Example 15, (1R)-1-Cyclopentanecarbonylamino-(3-carboxy-2-hydroxy)benzyl-methylboronic acid] | C (C represents an MIC of <1 μg/mL) | C (C represents an MIC of <1 μg/mL) | C (C represents an MIC of <1 μg/mL)
O=C(Cc1cc(O)ccc1O)N[C@@H](Cc1cccc(C(=O)O)c1O)B(O)O [Example 18, (1R)-1-(2-(2,5-dihydroxyphenyl)acetylamino)-2-(2-hydroxy-3-carboxyphenyl)ethyl-1-boronic acid] |  | C (C represents an MIC of <1 μg/mL) | 
O=C(COCc1ccccc1)N[C@@H](Cc1cccc(C(=O)O)c1O)B(O)O [Example 22, (1R)-1-(2-benzyloxyacetylamino)-2-(2-hydroxy-3-carboxyphenyl)ethyl-1-boronic acid] |  | C (C represents an MIC of <1 μg/mL) | C (C represents an MIC of <1 μg/mL)
CCCCCCC(=O)N[C@@H](Cc1cccc(C(=O)O)c1O)B(O)O [Example 24, (1R)-1-(heptanoylamino)-2-(2-hydroxy-3-carboxyphenyl)ethyl-1-boronic acid] |  | C (C represents an MIC of <1 μg/mL) | C (C represents an MIC of <1 μg/mL)
CC(C)(C)CC(=O)N[C@@H](Cc1cccc(C(=O)O)c1O)B(O)O [Example 25, (1R)-1-(3,3-Dimethyl-butyrylamino)-(3-carboxy-2-hydroxy)benzyl-methylboronic acid] |  | C (C represents an MIC of <1 μg/mL) | C (C represents an MIC of <1 μg/mL)
O=C(O)c1cccc(C[C@H](NC(=O)c2cccc3ccccc23)B(O)O)c1O [Example 27, (1R)-1-(1-naphthoylamino)-2-(2-hydroxy-3-carboxyphenyl)ethyl-1-boronic acid] |  |  | C (C represents an MIC of <1 μg/mL)
O=C(N[C@@H](Cc1cccc(C(=O)O)c1O)B(O)O)c1cccc(O)c1 [Example 28, (1R)-1-(3-hydroxybenzoylamino)-2-(2-hydroxy-3-carboxyphenyl)ethyl-1-boronic acid] |  | C (C represents an MIC of <1 μg/mL) | C (C represents an MIC of <1 μg/mL)
Cc1ccccc1C(=O)N[C@@H](Cc1cccc(C(=O)O)c1O)B(O)O [Example 30, (1R)-1-(2-methylbenzoylamino)-2-(2-hydroxy-3-carboxyphenyl)ethyl-1-boronic acid] |  |  | C (C represents an MIC of <1 μg/mL)
O=C(N[C@@H](Cc1cccc(C(=O)O)c1O)B(O)O)c1ccc(Cl)nc1 [Example 31, (1R)-1-(6-Chloro-pyridine-3-carbonyl)-amino-1-(3-carboxy-2-hydroxy)benzyl-methylboronic acid] |  | C (C represents an MIC of <1 μg/mL) | C (C represents an MIC of <1 μg/mL)
O=C(N[C@@H](Cc1cccc(C(=O)O)c1O)B(O)O)c1ccc(Cl)cc1 [Example 32, (1R)-1-(4-Chloro-benzoyl)-amino-1-(3-carboxy-2-hydroxy)benzyl-methylboronic acid] |  |  | C (C represents an MIC of <1 μg/mL)
COc1ccc(C(=O)N[C@@H](Cc2cccc(C(=O)O)c2O)B(O)O)cc1 [Example 33, (1R)-1-(4-Methoxybenzoyl)-amino-1-(3-carboxy-2-hydroxy)benzyl-methylboronic acid] |  |  | C (C represents an MIC of <1 μg/mL)
O=C(N[C@@H](Cc1cccc(C(=O)O)c1O)B(O)O)c1ccccc1O [Example 35, (1R)-1-(2-hydroxybenzoylamino)-2-(2-hydroxy-3-carboxyphenyl)ethyl-1-boronic acid] |  |  | C (C represents an MIC of <1 μg/mL)
O=C(Cn1cccn1)N[C@@H](Cc1cccc(C(=O)O)c1O)B(O)O [Example 40, (1R)-1-(Pyrazol-1-yl-acetylamino)-2-(2-hydroxy-3-carboxyphenyl)ethyl-1-boronic acid] |  | C (C represents an MIC of <1 μg/mL) | C (C represents an MIC of <1 μg/mL)
NCc1cccc(C(=O)N[C@@H](Cc2cccc(C(=O)O)c2O)B(O)O)c1.O=CO [Example 42, (1R)-1-(3-aminomethyl)-benzoylamino-1-(3-carboxy-2-hydroxy)benzyl-methyl boronic acid formate] | C (C represents an MIC of <1 μg/mL) |  | C (C represents an MIC of <1 μg/mL)
O=C(CN1C(=O)c2ccccc2C1=O)N[C@@H](Cc1cccc(C(=O)O)c1O)B(O)O [Example 45, (1R)-1-(2-(1,3-dioxoisoindolin-2-yl)acetylamino)-2-(2-hydroxy-3-carboxyphenyl)ethyl-1-boronic acid] |  |  | C (C represents an MIC of <1 μg/mL)
